Patent publication US20130023504A1, “Modulation of Prostaglandin/Cyclooxygenase Metabolic Pathways” (HUNTER-FLEMING LIMITED, priority 2006, published 2013)
Where “and” joins values, the source holds several entries; their conditions need not be identical. Identical values can stand only once.

Tests used:
[1] = system: PC-12 cells; assay: Ischaemia (oxygen-glucose deprivation)-induced cell death in NGF-differentiated PC-12 cells, Trypan Blue exclusion; type: cell-based; conditions: vs. ischemia alone
Method: PC-12 cells were maintained on flasks coated with Collagen typel in PC-12 media with the following composition; RPMI 1640 without L-glutamine with 2 mM L-glutamine, 10 mM HEPES, 1 mM Sodium Pyruvate, additional glucose to give a final concentration of 4.5 g/L (RPMI normally has 2 g/L), 10% heat inactivated horse serum, 5% foetal calf serum and 50 units of penicillin/streptomycin. Media was changed every 2 days.
Confluent cultures of PC-12 cells were differentiated by culturing for 7 days in PC-12 medium without serum but with 50 ng/mlNGF (PC-12 NGF media). The cells were harvested, washed, counted and 1×10^5 PC-12 cells/well were plated overnight in a micro titre plate in glucose free PC-12 NGF medium. The medium was then changed to glucose-free PC-12 NGF medium containing the compounds to be tested and the plates left under normoxic conditions for 30 minutes.
During this stage, the media and test substances for the anoxic exposure were placed in a chamber and de-oxygenated with 95% N2/5% CO2. The media in the plates was changed with the de-oxygenated media and the plates then placed in an anaerobic chamber gassed with 95% N2 5% CO2 for 10 minutes before being sealed and incubated at 37° C. overnight (18 hours). For normoxia controls, the cells were treated identically to ischemic treatments except that all incubations were in 5% CO2/95% air.
Viability was determined using Trypan Blue exclusion.

[2] = system: rat sensory neurones; assay: Cisplatin-induced neuronal cell death, number of cell bodies per field in dorsal root ganglia sensory neurones (anti MAP-2); type: cell-based; conditions: for % Control without cisplatin (cell bodies) / number of cell bodies per field, Average: cisplatin 3 μg/ml
Method: Primary cultures of dissociated dorsal root ganglia sensory neurones were incubated with 3 μg/ml cisplatin, with and without 7β-OH EPIA for 48 hours and 72 hours and the following parameters were evaluated:
neurone cell bodies stained with an anti MAP 2 antibody (microtubule associated protein 2)
Rat sensory neurones were prepared according to the method described by Hall et al 1997 [Hall et al. (J. Neurosci. 1997 Apr. 15; 17(8); 2775-84]. Briefly, a female rat (15 days gestation) was killed by cervical dislocation (Rats Wistar; Janvier, Le Genest-St-lsle, France) and the foetuses removed from the uterus. Their spinal cords with the dorsal root ganglia (DRG) were removed and placed in ice-cold medium of Leibovitz (L15, Fisher 11415-049) containing Penicillin 50 UI/ml-Streptomycin 50 μg/ml (PS, 1%) and bovine serum albuminutes (BSA 1%, Sigma A6003). The DRG were recovered and dissociated by trypsinisation for 20 minutes at 37° C. (trypsin EDTA 10×, 10%, Fisher 15400054) diluted in PBS without calcium and magnesium (Fisher 2007-03). The reaction was stopped by addition of Dulbecco modified Eagle medium (DMEM, Fisher 21969-035) containing DNase I grade II (0.1 mg/ml Roche diagnostic 104159) and foetal bovine serum (FBS 10%, Fisher 10270-098). The cell suspension was triturated with a 10 ml pipette and centrifuged at 350×g for 10 minutes at room temperature. The pellet of dissociated cells was then resuspended in defined culture medium.
Viable cells were counted in a Neubauer cytometer using the trypan blue exclusion test (Sigma) and seeded at a density of 30 000 cells/well in 96 well-plates (Nunc). Wells were pre-coated with poly-L-lysine (10 μg/ml, Sigma P2636) in ultra pure sterile water (Merck Eurolab 60759.01).
Cells were allowed to adhere for 2 h and maintained in a humidified incubator at 37° C. in 5% CO2/95% air atmosphere.
After 5 days of culture, the culture medium was changed into a defined culture medium following the different conditions described below:
Test compound 7β-OH EPIA (1 nM, 10 nM and 100 nM)+cisplatin (3 μg/ml)
Reference compound NGF (10 ng/ml)+cisplatin (3 μg/ml)
Six wells per condition were carried out to assess neuronal survival. After 48 hours and 72 hours of incubation, the neuronal cells were fixed for 5 minutes in an ethanol/acetic acid solution (95%/5%) at −20° C. and rinsed 3 times in PBS.
Cell bodies of sensory neurones were labelled by monoclonal anti MAP-2 antibody (Sigma M4403) and the neurite of sensory neurones were labelled by monoclonal β-Tubulin antibody (Sigma T8660). These antibodies were diluted at 1:400 in incubation solution (PBS with 5% of FCS and 0.1% of saponin, Sigma S-7900). These antibodies specifically label neurone cell bodies and neuritis, respectively.
After 2 hours of incubation, the cells were washed in PBS and incubated with Alexa Fluor 488 goat anti mouse IgG (Molecular Probes A11001) diluted at 1:300 in incubation solution to reveal the MAP-2 and the β-Tubulin antibodies. Cell nuclei were stained with a fluorescent marker (Hoechst staining solution, SIGMA H6024, 1 μg/ml in incubation solution during 1 hour).
For each condition, 2 pictures per well (12 pictures per condition) were taken using In Cell Analyzer 1000 (Amersham Biosciences) controlled by the computer software In Cell Analyzer 1000 3.2. For the MAP-2 labelling, the magnification was ×10, for the β-Tubulin labelling, the magnification was ×20. For each labelling, all the images were taken in the same conditions.
Analysis of the number of cell bodies labelled with anti-MAP-2 antibodies, and total length of neurites labelled with anti β-Tubulin antibodies, were carried out using In Cell Analyzer 1000 3.2.Workstation software. The results were expressed in percentage compared to the vehicle. The comparisons of each group were carried out using the unpaired T test.

`CC12CCC3C(C1CCC2=O)[C@@H](O)C[C@H]1C[C@@H](O)CCC31C` (stereo partly drawn) [Compound 7β-OH-EPIA, 7β-hydroxy-EPIAndrosterone] was tested, and the “decrease in cell death” value ([1]; 1 μM) was 26% and 25%, the “decrease in cell death” value ([1]; 10 μM) was 53% and 50% and the “reduction of cisplatin-induced cell death” value (shortened to “reduction”) ([2]; 1 nM, 48 hours) was 53.1%. The “reduction” value ([2]; 1 nM, 72 hours) was 93%, the “% Control without cisplatin (cell bodies)” value (“% Control without cisplatin” below) ([2]; 1 nM, 48 hours) was 85% and the “number of cell bodies per field, Average” value ([2]; 1 nM, 48 hours) was 51 and 51.42. For the same compound, the “% Control without cisplatin” value ([2]; 1 nM, 72 hours) was 98%, the “number of cell bodies per field, Average” value ([2]; 1 nM, 72 hours) was 52 and 52.42 and the “reduction” value ([2]; 10 nM, 48 hours) was 18.7%. For the same compound, the “reduction” value ([2]; 10 nM, 72 hours) was 104%, the “% Control without cisplatin” value ([2]; 10 nM, 48 hours) was 75% and the “number of cell bodies per field, Average” value ([2]; 10 nM, 48 hours) was 45 and 45.50. For the same compound, the “% Control without cisplatin” value ([2]; 10 nM, 72 hours) was 1.2%, the “number of cell bodies per field, Average” value ([2]; 10 nM, 72 hours) was 55 and 54.58 and the “reduction” value ([2]; 100 nM, 48 hours) was 43.8%. The “reduction” value ([2]; 100 nM, 72 hours) was 93%, the “% Control without cisplatin” value ([2]; 100 nM, 48 hours) was 82% and the “number of cell bodies per field, Average” value ([2]; 100 nM, 48 hours) was 50 and 49.58. For the same compound, the “% Control without cisplatin” value ([2]; 100 nM, 72 hours) was 97% and the “number of cell bodies per field, Average” value ([2]; 100 nM, 72 hours) was 52 and 52.25.
